{
  "source": "patent US8729047B2",
  "about": "“Compositions for inhibiting redox-sensitive GTPases” (Board of Regents, The University of Texas System, priority 2010, dated 2014)",
  "key": {"[1]": {"test_system": "HME-C20S RhoC cells", "assay": "MTT cell viability and caspase-3/8 assays", "format": "cell-based, human", "conditions": "NO donor alone; FIG. 25", "text": "(§1) FIG. 25. […] (B) Caspase-3/8 assay: the apoptotic activity of sample cells treated with the apoptotic inducer was set to be 100%, and other results were then expressed as normalized values against the mean value associated with the treatment with the apoptotic inducer. For both (A) and (B), all values represent the mean values and standard error values from triplicate measurements."}, "[2]": {"test_system": "HME-RhoC cells", "assay": "MTT cell viability and caspase-3/8 assays", "format": "cell-based, human", "conditions": "NO donor alone; FIG. 25", "text": "as §1"}, "[3]": {"test_system": "SUM149 cells", "assay": "MTT cell viability and caspase-3/8 assays", "format": "cell-based, human", "conditions": "NO donor alone; FIG. 25", "text": "as §1"}, "[4]": {"test_system": "HME-RhoC cells", "assay": "Matrigel invasion (cell motility) assay", "format": "cell-based, human", "conditions": "NO donor alone 10 μM, three days continuous; FIG. 14A", "experimental": "FIG. 5. Determination of cell invasiveness in the presence and absence of 6-thiopurine and/or a redox agent. The top chamber of a Transwell filter (6.5 mm with 8 μm pores, Costar; Corning, N.Y.) was coated with a 10 μL aliquot of 10 mg/mL Matrigel (BD Biosciences, Bedford Mass.), and the lower chamber of the Transwell was filled with either serum-free or serum-containing media. Sample cells (e.g., 6-TG-resistant HME-RhoC cells) were prepared to resuspend cells in a serum-free medium with 0.1% BSA at a concentration of 4×10^5 cells/mL. At this point, neither 6-thiopurine nor GSNO were added to the cells. The sample cells (0.5 mL) were added to the top chamber of a Transwell filter and were incubated for 24 h at 37° C. in a 10% CO2 incubator. The Transwell filters were fixed with methanol, stained with H&E, and cells in the serum-containing samples were counted. The number of cells that had invaded the serum-free medium-containing lower chambers was used as a control background. Results are given as percent invasion over that seen in HME-RhoC cells (100%) and represent mean and standard error values from triplicate measurements.\nFIG. 11. Determination of cell invasiveness in the presence and absence of […] and/or a redox agent. […] The number of cells that had invaded the serum-free medium-containing lower chambers was used as a control background. Results are given as percent invasion over that seen in HME-RhoC cells (100%) and represent mean and standard error values from triplicate measurements.\n(§2) FIG. 14. Determination of cell invasiveness in the presence and absence of thiopurines and/or redox agents. […] Western blot analysis representing the total expression of RhoC in these cells also is shown. (B) Experimental procedures for the determination of the time-dependent motility of cells using the QCM Cell Invasion Assay kit in the presence and absence of 6-TG and DETA/NO are described elsewhere herein.\n(§3) The top chamber of a Transwell filter (6.5 mm with 8 μm pores, Costar; Corning, N.Y.) was coated with a 10 μL aliquot of 10 mg/mL Matrigel, and the lower chamber of the Transwell was filled with either serum-free or serum-containing media. Sample cells were prepared to resuspend cells in a serum-free medium with 0.1% BSA at a concentration of 4×10^5 cells/mL. […] The Transwell filters were fixed with methanol, stained with haematoxylin and eosin, and cells in the serum-containing samples were counted. The number of cells that had invaded the serum-free, medium-containing lower chambers was used as a control background."}, "[5]": {"test_system": "HME-C20S RhoC cells", "assay": "Matrigel invasion (cell motility) assay", "format": "cell-based, human", "conditions": "NO donor alone 10 μM, three days continuous; FIG. 14A", "text": "as §2, §3"}, "[6]": {"test_system": "SUM149 cells", "assay": "Matrigel invasion (cell motility) assay", "format": "cell-based, human", "conditions": "NO donor alone 10 μM, three days continuous; FIG. 14A", "text": "as §2, §3"}, "[7]": {"target": "RhoC C20S (Homo sapiens, UniProt P08134, C20S)", "sequence (P08134 whole entry C20S)": "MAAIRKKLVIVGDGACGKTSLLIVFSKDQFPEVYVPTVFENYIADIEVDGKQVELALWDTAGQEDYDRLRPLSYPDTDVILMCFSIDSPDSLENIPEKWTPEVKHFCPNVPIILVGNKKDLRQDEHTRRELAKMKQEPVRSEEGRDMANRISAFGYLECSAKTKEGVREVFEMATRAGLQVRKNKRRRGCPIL", "assay": "RhoC expression (Western) and RhoC activity assay in cells", "format": "cell-based", "parameters": "expressed in transfected cells; host or cells: human mammary epithelial (HME) cells", "conditions": "HME-C20S RhoC cells, NO donor alone, three days", "experimental": "as §2\n(§4) Cells were lysed in an extraction buffer containing 50 mM NaCl, 5 mM MgCl2, 1 mM ethylenediaminetetraacetic acid (EDTA), 0.1 mM diethylenetriaminepentaacetic acid (DTPA), and 0.1% NP40 in 150 mM TrisHCl (pH 8.0). The content of […] RhoC in cells then was determined by using Western analysis that relies on a monoclonal anti-RhoC antibody (Biocompare, South San Francisco, Calif.). To determine RhoC activity, the colorimetric RhoA activation assay Biochem Kit (Cytoskeleton, Denver, Colo.) was used essentially as described in the previous study (Hall et al. Neoplasia 10, 797-803 (2008)) except that the RhoC specific antibody (vide supra), instead of the RhoA antibody included in the assay kit, was used for this analysis."}, "[8]": {"target": "RhoC (Homo sapiens, UniProt P08134)", "sequence (P08134 whole entry)": "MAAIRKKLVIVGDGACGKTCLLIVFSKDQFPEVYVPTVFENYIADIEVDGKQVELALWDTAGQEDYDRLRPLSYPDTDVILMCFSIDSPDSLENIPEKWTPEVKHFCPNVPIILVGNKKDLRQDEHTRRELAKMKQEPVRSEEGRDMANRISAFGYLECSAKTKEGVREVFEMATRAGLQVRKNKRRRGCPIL", "assay": "RhoC expression (Western) and RhoC activity assay in cells", "format": "cell-based", "parameters": "endogenous in cells; host or cells: SUM149, SUM102, SW480, HCCLM3 (endogenous); HME-RhoC (transfected with wild type RhoC)", "conditions": "SUM149 and HME-RhoC cells, NO donor alone, three days", "experimental": "as §2, §4"}, "[9]": {"target": "T1, RhoA (Rattus norvegicus, UniProt P61589)", "T1 construct": "endogenous in cells; host or cells: A7r5 cells (rat aortic vascular smooth muscle)", "T1 sequence (P61589 whole entry)": "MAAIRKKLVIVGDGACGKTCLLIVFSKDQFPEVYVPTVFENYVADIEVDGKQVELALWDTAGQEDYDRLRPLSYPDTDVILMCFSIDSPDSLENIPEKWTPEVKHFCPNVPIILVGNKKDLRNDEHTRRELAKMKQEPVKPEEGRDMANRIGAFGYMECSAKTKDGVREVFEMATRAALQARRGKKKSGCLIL", "assay": "RhoA expression (Western) and RhoA G-LISA activity in A7r5 cells", "format": "cell-based", "experimental": "(§5) FIG. 20. Determination of RhoA activity and MLC phosphorylation. […] Cell lysates in a buffer containing 1% NP-40, 10 mM EDTA, and 20 mM TrisHCl (pH 7.4) were centrifuged (50,000×g, 20 min) to remove solid matter. (A) The soluble cell extract was then used to perform Western blot analyses for RhoA and the MLC. This cell extract also was used for the co-IP-based ESI-MS analysis (FIG. 6). (B) A RhoA activity assay was colorimetrically determined using cell extract; the assay was performed with the RhoA G-LISA Activation Assay Kit (Cat. No. BK124) (Denver, Colo.). To examine the level of phosphorylation of the MLC, cells were cultured with ˜5 μCi of ^32P in 1 mL of phosphate-free DMEM. The collected cell extract was nutated with resin coupled with a macrophage myosin II antibody at 4° C. for 5 h. Resin was collected by centrifugation, and proteins bound to the resin were washed and eluted with a buffer (80° C.) containing […], 5 mM DTT, and 10 mM TrisHCl (pH 6.8). The immunoprecipitates were then analyzed by SDS-PAGE and autoradiographed. The values of RhoA activity and the MLC phosphorylation determined from untreated cells were set at 100%. […] The data represented in the figure represent the mean values of triplicate measurements, and the vertical error bar indicates standard errors."}, "[10]": {"test_system": "MLC", "assay": "MLC phosphorylation in A7r5 cells", "format": "cell-based, rat", "conditions": "only NO donor, DETA/NO ≅10 μM, FIG. 20B", "experimental": "as §5"}},
  "data": [
    {"smiles": "NCCN(CCN)/[N+]([O-])=N/O", "note": "[DETA/NO, diethylenetriamine nitric oxide adduct]", "values": [
      {"measurement": "cell viability and caspase activity", "setting": "[1]", "result": "minimally changed"},
      {"measurement": "cell viability and caspase activity", "setting": "[2]", "result": "minimally changed"},
      {"measurement": "cell viability and caspase activity", "setting": "[3]", "result": "minimally changed"},
      {"measurement": "effect on invasive cell motility", "setting": "[4]", "result": "minimal"},
      {"measurement": "effect on invasive cell motility", "setting": "[5]", "result": "minimal"},
      {"measurement": "effect on invasive cell motility", "setting": "[6]", "result": "minimal"},
      {"measurement": "effect on RhoC activity", "setting": "[7]", "result": "minimal"},
      {"measurement": "effect on RhoC activity", "setting": "[8]", "result": "minimal"},
      {"measurement": "concentration of NO donor alone required for RhoA inactivation", "setting": "[9]; not shown", "result": "> 50", "unit": "µM"},
      {"measurement": "RhoA inactivation", "setting": "[9]; only NO donor, DETA/NO ≅10 μM, FIG. 20B", "result": "minimal fraction of RhoA was inactivated"},
      {"measurement": "MLC dephosphorylation", "setting": "[10]", "result": "sizable fraction of the MLC was dephosphorylated"}
    ]}
  ]
}
